What was measured:
GST-Aurora A = target: T1, GST-Aurora A (Homo sapiens, UniProt O14965); assay: Aurora A kinase biochemical mobility shift assay (Caliper LC3000 / Desktop Profiler); settings: AK A (Aurora kinase A) inhibition
T1 construct: N-terminal GST fusion with full length Aurora A (1-403 amino acids); purchased Carna Biosciences 05-101
T1 sequence (O14965 1-403): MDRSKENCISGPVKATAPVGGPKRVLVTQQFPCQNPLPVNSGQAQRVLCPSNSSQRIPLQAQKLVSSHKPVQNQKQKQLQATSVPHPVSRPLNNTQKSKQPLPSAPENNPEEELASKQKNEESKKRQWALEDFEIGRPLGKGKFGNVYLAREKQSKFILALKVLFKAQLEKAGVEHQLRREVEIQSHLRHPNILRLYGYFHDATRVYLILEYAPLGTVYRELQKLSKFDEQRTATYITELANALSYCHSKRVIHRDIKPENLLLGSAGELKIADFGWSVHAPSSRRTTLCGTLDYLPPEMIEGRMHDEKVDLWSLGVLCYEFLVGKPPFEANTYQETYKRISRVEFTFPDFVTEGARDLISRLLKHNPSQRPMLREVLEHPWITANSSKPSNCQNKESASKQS
Summary of the method: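 Full-length N-terminal GST-Aurora A (0.067 ng/ul) phosphorylated 1 uM FITC-LRRASLG at 15 uM ATP in 100 mM HEPES pH 7.5, 1 mM MgCl2, 1 mM DTT, 0.015% Brij-35 for 90 min at 25 C, stopped with EDTA. Substrate-to-product conversion was measured by off-chip mobility shift; IC50 came from dose-response curves.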

RON kinase = target: T2, RON kinase (Homo sapiens, UniProt Q04912); assay: RON kinase biochemical mobility shift assay (Caliper Desktop Profiler); settings: RON kinase inhibition
T2 construct: purchased Caliper Life Sciences
T2 sequence (Q04912 25-1400): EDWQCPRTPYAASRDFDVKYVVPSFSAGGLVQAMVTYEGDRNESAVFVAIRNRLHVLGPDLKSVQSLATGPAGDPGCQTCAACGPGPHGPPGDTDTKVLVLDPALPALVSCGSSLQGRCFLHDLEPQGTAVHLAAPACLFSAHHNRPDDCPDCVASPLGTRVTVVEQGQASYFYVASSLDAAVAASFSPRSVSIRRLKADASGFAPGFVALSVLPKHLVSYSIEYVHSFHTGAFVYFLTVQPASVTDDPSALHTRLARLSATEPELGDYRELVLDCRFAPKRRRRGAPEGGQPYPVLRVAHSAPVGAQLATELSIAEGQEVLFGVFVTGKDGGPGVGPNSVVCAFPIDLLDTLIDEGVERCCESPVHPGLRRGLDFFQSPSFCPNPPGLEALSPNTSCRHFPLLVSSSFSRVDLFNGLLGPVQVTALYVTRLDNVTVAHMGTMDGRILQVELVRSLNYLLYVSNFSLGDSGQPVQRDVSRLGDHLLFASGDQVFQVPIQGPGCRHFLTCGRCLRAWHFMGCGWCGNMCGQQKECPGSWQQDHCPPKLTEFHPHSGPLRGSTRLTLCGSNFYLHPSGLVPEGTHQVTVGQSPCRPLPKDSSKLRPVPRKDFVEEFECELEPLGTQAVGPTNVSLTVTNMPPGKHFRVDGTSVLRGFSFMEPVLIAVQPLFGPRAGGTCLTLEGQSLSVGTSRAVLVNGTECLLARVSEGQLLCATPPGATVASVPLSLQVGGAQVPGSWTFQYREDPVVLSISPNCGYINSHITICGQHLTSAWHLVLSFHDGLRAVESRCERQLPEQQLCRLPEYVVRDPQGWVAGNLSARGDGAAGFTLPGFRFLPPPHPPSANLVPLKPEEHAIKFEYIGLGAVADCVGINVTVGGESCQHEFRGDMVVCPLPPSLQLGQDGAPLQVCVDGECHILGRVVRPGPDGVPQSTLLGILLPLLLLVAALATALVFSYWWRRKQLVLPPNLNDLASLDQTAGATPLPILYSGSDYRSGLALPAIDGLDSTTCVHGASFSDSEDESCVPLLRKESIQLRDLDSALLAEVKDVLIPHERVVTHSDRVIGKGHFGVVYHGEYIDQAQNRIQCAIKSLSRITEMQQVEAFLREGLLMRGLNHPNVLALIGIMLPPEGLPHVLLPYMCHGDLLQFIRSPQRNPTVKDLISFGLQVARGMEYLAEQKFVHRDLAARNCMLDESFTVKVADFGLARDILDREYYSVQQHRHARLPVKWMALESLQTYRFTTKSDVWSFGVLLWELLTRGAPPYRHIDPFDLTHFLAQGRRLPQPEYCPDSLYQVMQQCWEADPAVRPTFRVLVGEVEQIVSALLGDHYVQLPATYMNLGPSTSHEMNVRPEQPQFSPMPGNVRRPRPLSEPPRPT
Method: The Aurora assays described here are performed on two Caliper Life Sciences systems: the LC3000 and the Desktop Profiler. The RON kinase assays are performed on the Desktop Profiler only. These provide data on enzyme activity via measurement of the relative amounts of phosphorylated or unphosphorylated fluorescently labelled substrate peptide at the end of an enzymatic reaction. These different states of peptide are resolved by applying a potential difference across the sample. The presence of the charged phosphate group on the product (as opposed to the substrate) causes a different peptide mobility between the two peptides. This is visualized by excitation of the fluorescent label on the substrate and product peptides and represented as peaks within the analysis software.
The Desktop Profiler utilizes the same priniciple as the LC3000 for calculating percentage conversion of a substrate to product. Caliper Life Sciences provides proprietary flash frozen pre-made 384 well plates containing selected kinases. Each column in the 384 well plate contains a particular selected kinase. A second plate, the ‘substrate plate’ contains a mix of fluorescently labeled peptide substrate and ATP. These are arranged in columns so that transfer for substrate plate to enzyme plate provides the correct enzyme with the correct substrate/ATP concentration. Compounds are added to a thawed enzyme plate in the desired format, in single concentrations. Reactions are initiated by transfer of the substrate/ATP mix from the substrate plate. The enzyme plate is incubated for 90 minutes at 25 C. The reaction is stopped by addition of 70 ul of Stop Buffer (100 mM HEPES pH 7.5, 0.015% Brij-35, 10 mM EDTA (Sigma, E7889)).
Reading of the plate in the Profiler is identical to the LC3000, and the ratio between substrate and product peaks provides the activity of the enzyme in that well. This is best represented by a plate heat map which colors each well by percent inhibition as compared to positive and negative controls (no inhibitors and no ATP respectively).

normal human cell growth = settings: in vitro, normal human cells vs tumor cells of various origins; cited from earlier work

SMILES | IC50 (GST-Aurora A) [nM] | IC50 (RON kinase) [nM] | fold less effective at inhibiting normal human cell growth than tumor cell proliferation (normal human cell growth)
COc1cccc(S(=O)(=O)Nc2ccc(Oc3ccnc4c3CNC(=O)N4)c(F)c2)c1 [Example 71, N-{3-fluoro-4-[(2-oxo-1,2,3,4-tetrahydropyrido[2,3-d]pyrimidin-5-yl)oxy]phenyl}-3-methoxybenzenesulfonamide] | 100 to 1000 | 100 to 1000 | 
O=C1NCc2c(Oc3ccc(NC(=O)c4cc(Cl)cnc4Cl)cc3F)ccnc2N1 [Example 65, 2,5-dichloro-N-{3-fluoro-4-[(2-oxo-1,2,3,4-tetrahydropyrido[2,3-d]pyrimidin-5-yl)oxy]phenyl}-nicotinamide] | 10 to 100 | 10 to 100 | 
O=C1NCc2c(Oc3ccc(NC(=O)c4cccc(Br)c4)cc3F)ccnc2N1 [Example 66, 3-bromo-N-{3-fluoro-4-[(2-oxo-1,2,3,4-tetrahydropyrido[2,3-d]pyrimidin-5-yl)oxy]phenyl}-benzamide] | 10 to 100 | 10 to 100 | 
CCN1Cc2c(Oc3ccc(NC(=O)Nc4cc(C)cs4)cc3F)ccnc2NC1=O [Example 267, 1-[4-(3-Ethyl-2-oxo-1,2,3,4-tetrahydro-pyrido[2,3-d]pyrimidin-5-yloxy)-3-fluoro-phenyl]-3-(4-methyl-thiophen-2-yl)-urea] |  | 10 to 100 | 
CCN1Cc2c(Oc3ccc(NC(=O)Nc4ccc(Cl)nc4)cc3F)ccnc2NC1=O [Example 264, 1-(6-Chloro-pyridin-3-yl)-3-[4-(3-ethyl-2-oxo-1,2,3,4-tetrahydro-pyrido[2,3-d]pyrimidin-5-yloxy)-3-fluoro-phenyl]-urea] |  | 100 to 1000 | 
Cc1c(C(=O)Nc2ccc(Oc3ccnc4c3C3OCCCN3C(=O)N4)c(F)c2)c(=O)n(-c2ccccc2)n1CC(C)(C)O (centres unmarked) [Example 75, N-{3-fluoro-4-[(6-oxo-3,4,7,11b-tetrahydro-2H,6H-pyrido[2′,3′:4,5]pyrimido[6,1-b][1,3]oxazin-11-yl)oxy]phenyl}-1-(2-hydroxy-2-methylpropyl)-5-methyl-3-oxo-2-phenyl-2,3-dihydro-1H-pyrazole-4-carboxamide] |  | 100 to 1000 | 
CCN1Cc2c(Oc3ccc(NC(=O)Nc4cc([N+](=O)[O-])ccc4F)cc3F)ccnc2NC1=O [Example 258, 1-[4-(3-Ethyl-2-oxo-1,2,3,4-tetrahydro-pyrido[2,3-d]pyrimidin-5-yloxy)-3-fluoro-phenyl]-3-(2-fluoro-5-nitro-phenyl)-urea] |  | 100 to 1000 | 
Nc1nc(Nc2ccc(S(N)(=O)=O)cc2)nn1C(=O)c1c(F)cccc1F [JNJ-7706621] |  |  | about 10 fold
O=C1NCc2c(Oc3ccc(NC(=O)c4cccn(-c5ccc(F)cc5)c4=O)nc3)ccnc2N1 [Example 283, 1-(4-Fluoro-phenyl)-2-oxo-1,2-dihydro-pyridine-3-carboxylic acid [5-(2-oxo-1,2,3,4-tetrahydro-pyrido[2,3-d]pyrimidin-5-yloxy)-pyridin-2-yl]-amide] |  | 100 to 1000 | 
Cc1c(C(=O)Nc2ccc(Oc3ccnc4c3CNC(=O)N4)c(F)c2)c(=O)n(-c2ccccc2)n1CC(C)(C)O [Example 74, N-{3-fluoro-4-[(2-oxo-1,2,3,4-tetrahydropyrido[2,3-d]pyrimidin-5-yl)oxy]phenyl}-1-(2-hydroxy-2-methylpropyl)-5-methyl-3-oxo-2-phenyl-2,3-dihydro-1H-pyrazole-4-carboxamide] |  | 100 to 1000 | 
O=C1NCc2c(Oc3ccc(NC(=O)c4cccc(C(F)(F)F)c4F)cc3F)ccnc2N1 [Example 94, 2-fluoro-N-{3-fluoro-4-[(2-oxo-1,2,3,4-tetrahydropyrido[2,3-d]pyrimidin-5-yl)oxy]phenyl}-3-(trifluoromethyl)benzamide] |  | 10 to 100 | 
O=C(Nc1cccc(Cl)c1)Nc1ccc(Oc2ccnc3c2CNC(=O)N3)c(F)c1 [Example 67, N-(3-chlorophenyl)-N′-{3-fluoro-4-[(2-oxo-1,2,3,4-tetrahydropyrido[2,3-d]pyrimidin-5-yl)oxy]phenyl}urea] | 10 to 100 | 10 to 100 | 
O=C(Nc1ccc(Oc2ccnc3c2CNC(=O)N3)c(F)c1)Nc1ccc(C(F)(F)F)cc1Cl [Example 274, 1-(2-Chloro-4-trifluoromethyl-phenyl)-3-[3-fluoro-4-(2-oxo-1,2,3,4-tetrahydro-pyrido[2,3-d]pyrimidin-5-yloxy)-phenyl]-urea] |  | 100 to 1000 | 
N#Cc1cccc(C(=O)Nc2ccc(Oc3ccnc4c3CNC(=O)N4)c(F)c2)c1 [Example 95, 3-cyano-N-{3-fluoro-4-[(2-oxo-1,2,3,4-tetrahydropyrido[2,3-d]pyrimidin-5-yl)oxy]phenyl}benzamide] |  | 10 to 100 | 
O=C1NCc2c(Oc3ccc(NS(=O)(=O)c4ccccc4F)cc3F)ccnc2N1 [Example 70, 2-fluoro-N-{3-fluoro-4-[(2-oxo-1,2,3,4-tetrahydropyrido[2,3-d]pyrimidin-5-yl)oxy]phenyl}benzenesulfonamide] | 100 to 1000 | 100 to 1000 | 
